{
  "source": "patent US20240058321A1",
  "about": "“FARNESYL-TRANSFERASE INHIBITORS AND KRAS INHIBITORS FOR TREATING KRAS MUTANT CANCERS” (SEMMELWEIS EGYETEM, priority 2021, published 2024)",
  "key": {"SW1573 [1]": {"test_system": "SW1573", "test": "2D combinational test (SRB growth inhibition, six days)", "details": "SW1573", "quoted_text": "(§3) H358, SW1573, H1792, MIAPACA2, SW1990, SNUC2B, SW480, A549 and HCT116 were purchased from ATCC, while SW48 KRAS G12C colorectal cell line and H838 KRAS G12D lung cell line was bought from Horizon Discovery Ltd. Most of the cell lines were heterozygous for mutant KRAS, as in human cases used to occur, but we also used cell lines with homozygous mutant KRAS.\n(§4) Cells were cultured in DMEM (Lonza, Switzerland; with 4500 mg/dm3 glucose, pyruvate and L-glutamine) supplemented with 10% fetal calf serum (EuroClone) and 1% penicillin-streptomycin-amphotericin (Lonza) in tissue culture flasks in a humidified 5% CO2 atmosphere at 37° C.\n(§5) For in vitro experiments drugs were dissolved in DMSO in 10 mM stock concentration and stored at −80° C.\nCells that reached 70-80% confluency were trypsinized and counted using Luna II Automated Cell Counter. Cells were plated in 5000-10000 cells/well density (depending on the growth rate of the given cell line) on a 24 well plate. Next day the medium was replaced to fresh medium supplemented with the inhibitors. After 6 days, the wells were washed with DPBS (Lonza) and the cells were fixed by 10% trichloroacetic acid and stained with Sulphorodamine-B (SRB) (Sigma) dye for 15 minutes. Plates then were repeatedly washed with 1% acetic acid to remove excess dye. Protein-bound SRB was then dissolved in 10 mM Tris buffer (pH=7,4) and OD was measured at 570 nm using a microplate reader (EL800, BioTec Instruments, Winooski, VT). OD values were normalized to control. Transformed data then were used to calculate combinational index (CI) values using Compusyn software as described in https://www.combosyn.com/index.html. Data shown are results of three independent experiments."}, "SW1573 [2]": {"test_system": "SW1573", "test": "siRNA knockdown experiment (SRB, IC50)", "type": "cell-based, human", "details": "6-day-long treatment", "protocol": "Cells were plated in 2500 and 7500 cells/well density (for non-targeting siRNA and HRAS siRNA treatment, respectively) on a 48we11 plate supplemented with pre-mixed Lipofectamine RNAIMAX Reagent (Thermo Fisher) and OptiMEM (Thermo Fisher) containing 2.5 pmol/well non-targeting or HRAS siRNA according to the manufacturer's instruction (reverse transfection protocol). […] On the 3rd day of the treatment, cells were supplemented with fresh pre-mixed 2.5 pmol/well siRNA diluted in Lipofectamine RNAiMAX Reagent and Optimem according to the manufacturer's instruction. […] OD values were normalized to control, and IC50 values were calculated from transformed data using GraphPad PRISM 5 software."}, "SW1573 xenografts": {"test_system": "SW1573 xenografts", "test": "In vivo tumor growth of subcutaneous xenografts", "parameters": "species or system female SCID mice", "details": "AMG510 25 mg/kg i.p. and/or tipifarnib 40 mg/kg i.p.", "protocol": "(§1) H358 and SW1573 human lung adenocarcinoma cells (5×10^6 and 1×10^6, respectively) were subcutaneously injected in female SCID mice. Cells were injected in 200 μl DMEM:Matrigel mixture (ratio 1:1) based on preliminary experiments. When tumor reached approximately 100 mm^3 (H358 7 days, SW1573 26 days after injection), animals were randomized and treated intraperitoneally daily except for weekends. Drugs were dissolved in 60% DPBS, 34% PEG300, 5% DMSO and 1% Tween80. […] Controls received vehicle. Doses were determined based on previous literature, roughly using half of the used per os doses. The subcutaneous tumors were measured with a caliper and tumor volumes were calculated with the formula […] and expressed in mm^3. H358 experiment was terminated after 18 days and SW1573 after 25 days treatment. Tumors were measured upon harvest, then fixed with 4% PFA for histological analyses.\n(§2) Animals were the properties of the Department of Experimental Pharmacology, National Institute of Oncology, H-1122, Budapest, Hungary. All experiments were carried out in accordance with the Guidelines for Animal Experiments and were approved for the Department of Experimental Pharmacology in the National Institute of Oncology, Budapest, Hungary."}, "H358 xenografts": {"test_system": "H358 xenografts", "test": "In vivo tumor growth of subcutaneous xenografts", "parameters": "species or system female SCID mice", "details": "AMG510 5 mg/kg i.p. and/or tipifarnib 40 mg/kg i.p.", "protocol": "as §1, §2"}, "H358": {"test_system": "H358", "test": "2D combinational test (SRB growth inhibition, six days)", "quoted_text": "as §3, §4, §5\nCells that reached 70-80% confluency were trypsinized and counted using Luna II Automated Cell Counter. Cells were plated in 5000-10000 cells/well density (depending on the growth rate of the given cell line) on a 24 well plate. Next day the medium was replaced to fresh medium supplemented with the inhibitors. After 6 days, the wells were washed with DPBS (Lonza) and the cells were fixed by 10% trichloroacetic acid and stained with Sulphorodamine-B (SRB) (Sigma) dye for 15 minutes. […] Protein-bound SRB was then dissolved in 10 mM Tris buffer (pH=7,4) and OD was measured at 570 nm using a microplate reader (EL800, BioTec Instruments, Winooski, VT). […]"}, "SW1573 spheroids": {"test_system": "SW1573 spheroids", "test": "3D spheroid growth test", "type": "cell-based, human", "protocol": "Spheroids were generated using polyHEMA coated 96we11 round bottom plates. Briefly, the inner 60 wells of the plate were coated with 60 μl 5 mg/ml polyHEMA dissolved in 96% ethanol. Plates were dried at 60° C. in a plate shaker while shaking, then sterilized with UV. Cells were seeded at 3000 cells/well density at the inner 60 polyHEMA coated wells in 200 μl medium, while the outer wells were filled with DPBS (Lonza) to avoid evaporation. Plates were then centrifugated at 2000 RPM so that cells would be concentrated at the bottom of the well thus enhancing single spheroid formation. Within 24 hours the cells aggregated into spheroids and were treated by adding further 100 μl medium supplemented with the inhibitors. Each concentration group contained three spheroids. Each spheroid was pictured using a ToupCam XW 3MP microscope-camera on the first and sixth day of the treatment. Before imaging, medium was gently suspended so that unattached or dead cells would be removed from the surface of the spheroids. Images then were analysed using ImageJ software with a modified script of [1]. Briefly, the script measures the area of the 2D projections of the spheroids. Results were manually reviewed, then area values were used to calculate radius and volume of spheroids using the formula V=4/3×π×radius^3. Data are shown as results of three independent experiments."}, "cancer patients": {"test_system": "cancer patients", "details": "cited from earlier work"}, "[3]": {"details": "(day 1 = 1), animal 1, in g (unit assumed)"}, "[4]": {"details": "(day 1 = 1), animal 3, in g (unit assumed)"}, "[5]": {"details": "(day 1 = 1), animal 4, in g (unit assumed)"}, "[6]": {"details": "(day 1 = 1), animal 6, in g (unit assumed)"}, "[7]": {"details": "(day 1 = 1), animal 7, in g (unit assumed)"}, "[8]": {"details": "(day 1 = 1), group mean, in g (unit assumed)"}},
  "note": "Where two headings read alike, the source gives them in different places.",
  "data": [
    {"substance": "sotorasib [AMG510]", "values": [
      {"measurement": "Sensitivity to treatment in 2D in vitro experiments", "setting": "SW1573 [1]", "result": "resistant"},
      {"measurement": "IC50", "setting": "SW1573 [2]; Cont (non-targeting) siRNA", "result": 100, "unit": "nM"},
      {"measurement": "IC50", "setting": "SW1573 [2]; HRAS siRNA", "result": 51.7, "unit": "nM"},
      {"measurement": "Weights of the tumors at the end of the experiment", "setting": "SW1573 xenografts; [3]", "result": 0.1025},
      {"measurement": "Weights of the tumors at the end of the experiment", "setting": "SW1573 xenografts; [4]", "result": 0.7238},
      {"measurement": "Weights of the tumors at the end of the experiment", "setting": "SW1573 xenografts; [5]", "result": 0.2227},
      {"measurement": "Weights of the tumors at the end of the experiment", "setting": "SW1573 xenografts; (day 1 = 1), animal 5, in g (unit assumed)", "result": 0.144},
      {"measurement": "Weights of the tumors at the end of the experiment", "setting": "SW1573 xenografts; [6]", "result": 0.5804},
      {"measurement": "Weights of the tumors at the end of the experiment", "setting": "SW1573 xenografts; [7]", "result": 0.4184},
      {"measurement": "Weights of the tumors at the end of the experiment, MEAN", "setting": "SW1573 xenografts; [8]", "result": 0.3653},
      {"measurement": "Inhibition of tumor growth (in words)", "setting": "SW1573 xenografts; daily except weekends", "result": "effectively inhibited tumors"},
      {"measurement": "Weights of the tumors at the end of the experiment", "setting": "H358 xenografts; [3]", "result": 0.053},
      {"measurement": "Weights of the tumors at the end of the experiment", "setting": "H358 xenografts; (day 1 = 1), animal 2, in g (unit assumed)", "result": 0.559},
      {"measurement": "Weights of the tumors at the end of the experiment", "setting": "H358 xenografts; [4]", "result": 0.038},
      {"measurement": "Weights of the tumors at the end of the experiment", "setting": "H358 xenografts; [5]", "result": 0.157},
      {"measurement": "Weights of the tumors at the end of the experiment", "setting": "H358 xenografts; [6]", "result": 0.254},
      {"measurement": "Weights of the tumors at the end of the experiment", "setting": "H358 xenografts; [7]", "result": 0.029},
      {"measurement": "Weights of the tumors at the end of the experiment, MEAN", "setting": "H358 xenografts; [8]", "result": 0.1817},
      {"measurement": "Inhibition of tumor growth (in words)", "setting": "H358 xenografts; daily except weekends", "result": "effectively inhibited tumors"},
      {"measurement": "Sensitivity to treatment in 2D in vitro experiments", "setting": "H358", "result": "highly sensitive"},
      {"measurement": "Drug sensitivity in 3D compared to 2D settings", "setting": "SW1573 spheroids", "result": "higher sensitivity"},
      {"measurement": "Clinical efficacy in monotherapy", "setting": "cancer patients; LUAD patients", "result": "good efficacy"},
      {"measurement": "Clinical efficacy in monotherapy", "setting": "cancer patients; colorectal cancer patients", "result": "relatively less effective"},
      {"measurement": "Clinical toxicity", "setting": "cancer patients; tested clinically", "result": "without rate limiting toxicities"}
    ]}
  ]
}
